For orientation: pIC50 means the IC50 on a negative log10 scale, so that one unit is a factor of ten.

Here are results for one compound from patent US5326902A, “Oxyalkyne compounds, pharmaceutical compositions containing them and processes for preparing such compounds and compositions” (Gruenenthal GmbH, priority 1992, dated 1994).

For one experiment, the system named is 5-lipoxygenase. Kind of experiment: Inhibition of 5-lipoxygenase in Rat Blood After Oral Administration (ex vivo iLTB4-formation). The conditions noted are these: 21.5 mg/kg oral, male Wistar rats, one hour after administration. How it is done:
The bioavailability of the compounds of formula I as 5-lipoxygenase inhibitors was characterized by means of an ex vivo biochemical assay method described by Tateson et al. in Brit. J. Pharmacol. 94, 528 (1988): A compound of formula I was orally administered to male rats (Wistar strain) at a dose of 21.5 mg/kg. After lethal CO2 -narcosis one hour after administration, the rats were bled by heart puncture with added heparin as an anticoagulant. Aliquots of the whole blood were incubated at 37° C. for 30 minutes in a water bath with calcium ionophore A 23 187 at an end concentration of 15 μg/ml. At the end of the incubation, the samples were centrifuged, and the concentration of the immunoreactive LTB4 (iLTB4) in aliquots of cell-free plasma was determined by radioimmunoassay (3H-LTB4 -RIA, Amersham). To enable calculation of the inhibition in percent of ex vivo iLTB4 -formation in whole rat blood treated with a compound according to the invention, rats orally treated with an appropriate vehicle solution were included in all experiments, and aliquots of their blood were run in parallel and were processed in the same way as described. The average iLTB4 -content of the plasma of the vehicletreated rats served as a 100% value. The activity in percent of the ex vivo iLTB4 -formation after oral administration of a compound according to the invention was calculated by dividing the average value of the iLTB4 -contents in ng iLTB4 /ml of the group treated with a compound according to the invention by the average value of the iLTB4 -contents in ng iLTB4 /ml of the vehicle treated group and subsequent multiplication by a factor of 100. The respective inhibition in percent was calculated by subtracting the activity in percent from 100.

In experiment [1] the target is T1, 12-lipoxygenase (Homo sapiens, UniProt P18054).
T1 sequence (P18054 1-663): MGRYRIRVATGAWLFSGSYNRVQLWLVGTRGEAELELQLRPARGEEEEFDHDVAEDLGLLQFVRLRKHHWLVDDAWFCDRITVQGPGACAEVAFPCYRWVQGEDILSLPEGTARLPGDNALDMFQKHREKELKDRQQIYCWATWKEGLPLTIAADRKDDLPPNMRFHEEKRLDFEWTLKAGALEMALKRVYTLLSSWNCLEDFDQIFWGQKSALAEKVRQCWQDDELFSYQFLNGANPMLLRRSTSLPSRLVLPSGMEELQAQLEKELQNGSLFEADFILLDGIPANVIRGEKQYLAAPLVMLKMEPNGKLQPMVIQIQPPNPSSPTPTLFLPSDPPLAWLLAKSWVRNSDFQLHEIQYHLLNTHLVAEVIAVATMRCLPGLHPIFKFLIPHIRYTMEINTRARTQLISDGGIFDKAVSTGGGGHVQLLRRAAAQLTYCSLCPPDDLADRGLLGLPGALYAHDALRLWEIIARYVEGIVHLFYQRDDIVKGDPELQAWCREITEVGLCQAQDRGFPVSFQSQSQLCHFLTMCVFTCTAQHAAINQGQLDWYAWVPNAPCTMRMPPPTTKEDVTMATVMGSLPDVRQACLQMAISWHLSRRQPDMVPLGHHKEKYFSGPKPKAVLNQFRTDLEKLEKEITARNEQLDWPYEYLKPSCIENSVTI
Kind of experiment: Inhibition of 12-HETE- and 5S,12S-DiHETE-synthesis induced by FMLP/merthiolate of human polymorphonuclear leukocytes and thrombocytes. The class given is cell-based. The conditions noted are these: coincubation of human granulocytes and thrombocytes, read-out: IC50-value of the inhibitory action on 12-lipoxygenase. How it is done: Human granulocytes were isolated by dextran sedimentation and a Percoll gradient method and suspended in HBSS (Hanks buffered saline solution) at 1×10^7 cells/ml. The cells were incubated in the presence of a compound according to the invention or a solvent (ethanol and/or dimethyl sulfoxide) at 37° C. for 2 minutes, then with merthiolate (sodium ethylmercurithiosalicylate; 40 μM) for 2 minutes and thereafter with FMLP (formyl-methionyl-leucylphenylalanine; 10^-7 M) for 15 minutes. After solid phase extraction, the metabolites of arachidonic acid 5-HETE, LTB4, 6-trans-LTB4 -isomers, 20-OH-LTB4 and 20-COOH-LTB4 were identified by RP-HPLC (M. Haurand and L. Flohe in Biochem. Pharmacol. 38, 2129 to 2137 (1989)).
Coincubations of human granulocytes and thrombocytes were carried out and investigated for inhibition of leukotriene-synthesis induced by FMLP/merthiolate. 12-HETE and 5S, 12S-DiHETE were additionally included into the evaluation. The IC50 -value of the inhibitory action on 12-lipoxygenase was 5 μmolar when the compound prepared according to Example 1 was used.

In experiment [2] the target is T1, 12-lipoxygenase. Nature of the experiment: Inhibition of 12-lipoxygenase in homogenates of human thrombocytes. The experiment is classed as biochemical. To be noted: arachidonic acid 40 μM, indomethacin 10 μM, 25° C., read-out: IC50-value of the inhibitory action on 12-Lipoxygenase. The protocol: Human thrombocytes were suspended at 3×10^9 cells/ml, fumigated with nitrogen, and sonicated with ultrasonic energy while cooling in ice water. After centrifugation at 10.000 × g for 15 minutes, reduced glutathione (3 mM) was added. 1 ml portions of the 10,000 × g supernatant were incubated with a compound according to the invention or with ethanol at 25° C. for 4 minutes and then with 1-^14 C-labelled arachidonic acid (40 μM) for 7.5 minutes. In addition, indomethacin (10 μM) was added to each sample. The reaction was stopped by adding acetic acid, and then the metabolites of arachidonic acid were extracted with ethyl acetate and analyzed by thin layer chromatography. The distribution of the […] fractions was measured using a TLC-linear analyzer. The IC50 -values were determined graphically from semilogarithmic plots. The IC50 -value of the inhibitory action on 12-Lipoxygenase was 1 μmolar when the compound prepared according to Example 1 was used.

The test system of experiment [3] is bronchoconstriction elicited by ovalbumin. Kind of experiment: Allergen-induced bronchoconstriction in guinea pigs (Konzett-Rossler). The class given is in vivo, guinea pig. The conditions noted are these: Cavia porcellus, 1 h; oral, 60 minutes before ovalbumin (0.2 mg/kg intravenous); passively sensitized guinea pigs; read-out: ED40-Value (40% average inhibition of the bronchoconstriction elicited by ovalbumin). How it is done: The anti-asthmatic effect of compounds according to the invention was tested in anesthetized and ventilated guinea pigs. To induce an asthmatic reaction, the animals were passively sensitized by a single intraperitoneal injection of anti-ovalbumin serum. After 48 hours, the asthmatic reaction was elicited by intravenous challenge with 0.2 mg/kg of ovalbumin. The immediately resulting bronchoconstriction was measured as an increase in intratracheal pressure. Effects caused by histamine, serotonin and sympathic counterreaction were eliminated by intravenous pretreatment with 2.15 mg/kg of mepyramine, 46.4 μg/kg of propranolol, 4.64 mg/kg of atropine and 1 mg/kg of methysergide, all administered 5 minutes before challenge. Compounds according to the invention were administered orally 60 minutes before the administration of ovalbumin. The following […] for the inhibition of the bronchoconstriction elicited by ovalbumin, i.e. the effective doses causing a 40% average inhibition of the bronchoconstriction, were determined: […]

Structures are written as SMILES. pIC50: −log10 of the molar value.

`CC(=O)N(O)Cc1ccc(C(O)C#Cc2ccccc2)cc1` (racemic) [Example 1, N-Hydroxy-N-[4-[1-hydroxy-3-phenyl-prop-2-yn-1-yl]benzyl]acetamide]: the “Inhibition [%] of ex vivo iLTB4-formation” value with 5-lipoxygenase is given as 93%. The results for the pIC50 on 12-lipoxygenase [1] and on 12-lipoxygenase [2] were 5.30 and 6.00, respectively. The ED40 in experiment [3] turned out to be 17 mg/kg.
